Each block holds one molecule with its values, some of them ahead of it. Active and inactive are the calls of the source. The rule behind the calls is not given here.
Columns and labels:
[1] = Induction of cellularization in human primary myotube assessed as alpha-tubulin level at 5 uM in presence of reversine incubated for 72 hrs by Western blot analysis (reference value: 0.674); format: functional
[2] = Induction of cellularization in human primary myotube assessed as beta-actin level at 5 uM in presence of reversine incubated for 72 hrs by Western blot analysis (reference value: 1.095); format: tissue-based
[3] = biological target: Glycogen synthase kinase-3 beta (Homo sapiens) (UniProt P49841); assay: Inhibition of GSK3beta (unknown origin) using PASVPPSPSLSRHSSPHQpSED as substrate preincubated for 10 mins followed by substrate addition and measured after 30 mins by TR-FRET assay; conditions: time 40.0 mins
Sequence of Glycogen synthase kinase-3 beta (Homo sapiens) (P49841 whole entry, looked up): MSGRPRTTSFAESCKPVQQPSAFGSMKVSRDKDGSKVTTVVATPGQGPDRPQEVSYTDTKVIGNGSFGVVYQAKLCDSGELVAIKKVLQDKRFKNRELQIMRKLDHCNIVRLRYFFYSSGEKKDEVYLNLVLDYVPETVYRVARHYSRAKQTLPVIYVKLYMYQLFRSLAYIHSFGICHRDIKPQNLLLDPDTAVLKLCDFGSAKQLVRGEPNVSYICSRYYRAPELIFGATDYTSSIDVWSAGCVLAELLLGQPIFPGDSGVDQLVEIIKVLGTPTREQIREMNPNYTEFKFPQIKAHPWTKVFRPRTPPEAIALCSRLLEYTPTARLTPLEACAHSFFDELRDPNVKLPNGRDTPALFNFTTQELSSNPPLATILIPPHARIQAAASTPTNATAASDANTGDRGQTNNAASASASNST

[4] = biological target: T1, Aurora kinase A (Homo sapiens) (UniProt O14965); assay: Inhibition of recombinant human N-terminal His-tagged Aurora A expressed in Sf21 cells using peptide substrate by TR-FRET assay
T1 sequence (whole entry): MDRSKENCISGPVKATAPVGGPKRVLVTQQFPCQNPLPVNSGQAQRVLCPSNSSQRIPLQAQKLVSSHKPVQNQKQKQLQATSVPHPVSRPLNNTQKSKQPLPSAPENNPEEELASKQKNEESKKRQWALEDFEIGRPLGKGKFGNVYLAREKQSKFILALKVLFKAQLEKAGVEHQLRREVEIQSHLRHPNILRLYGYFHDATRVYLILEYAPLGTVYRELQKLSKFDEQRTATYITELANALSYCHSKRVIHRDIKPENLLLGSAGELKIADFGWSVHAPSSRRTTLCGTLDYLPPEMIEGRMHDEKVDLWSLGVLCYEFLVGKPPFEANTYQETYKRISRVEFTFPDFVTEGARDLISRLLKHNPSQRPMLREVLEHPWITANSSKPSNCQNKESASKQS

[5] = biological target: Glycogen synthase kinase-3 beta (Homo sapiens) (UniProt P49841); assay: Inhibition of GSK3beta (unknown origin) using PASVPPSPSLSRHSSPHQpSED as substrate at 1 uM preincubated for 10 mins followed by substrate addition and measured after 30 mins by TR-FRET assay relative to control
[6] = biological target: T1, Aurora kinase A (Homo sapiens); assay: Inhibition of recombinant human N-terminal His-tagged Aurora A expressed in Sf21 cells using peptide substrate at 1 uM by TR-FRET assay relative to control
[7] = test system: MDA-MB-231; assay: Antimetastatic activity in human MDA-MB-231 cells xenografted in zebra fish at 10 uM incubated for 96 hrs by fluorescence microscopy; format: functional, cell-based
[8] = Toxicity in zebra fish embryo assessed as reduction in cell viability at 40 uM; set-up: species or system Danio rerio; conditions: zebrafish
[9] = Toxicity in zebra fish embryo assessed as reduction in swimming ability at 20 to 40 uM; set-up: species or system Danio rerio; conditions: zebrafish, dose 20-40 µM
[10] = Toxicity in zebra fish embryo assessed as skeletal abnormalities at 20 to 40 uM; set-up: species or system Danio rerio; conditions: zebrafish, dose 20-40 µM
[11] = test system: MDA-MB-231; assay: Inhibition of cell invasion in human MDA-MB-231 cells at 50 nM incubated for 72 hrs by crystal violet staining based assay; format: functional
[12] = test system: MDA-MB-231; assay: Induction of apoptosis in human MDA-MB-231 cells assessed as cleaved PARP at 500 nM incubated for 72 hrs by Western blot assay (reference value: 0.519); format: functional
[13] = test system: MDA-MB-231; assay: Induction of apoptosis in human MDA-MB-231 cells assessed as cleaved caspase-7 at 500 nM incubated for 72 hrs by Western blot assay (reference value: 0.349); format: functional
[14] = test system: HCT-116; assay: Induction of apoptosis in human HCT-116 cells assessed as cleaved PARP at 500 nM incubated for 72 hrs by Western blot assay (reference value: 1.127); format: functional
[15] = test system: HCT-116; assay: Induction of apoptosis in human HCT-116 cells assessed as cleaved caspase-7 at 500 nM incubated for 72 hrs by Western blot assay (reference value: 0); format: functional
[16] = test system: MDA-MB-231; assay: Cytotoxicity against human MDA-MB-231 cells assessed as reduction in cell viability incubated for 72 hrs by MTT assay; format: functional, cell-based; conditions: MDA-MB-231, 72 h
[17] = test system: HCT-116; assay: Cytotoxicity against human HCT-116 cells assessed as reduction in cell viability incubated for 72 hrs by MTT assay; format: functional, cell-based; conditions: HCT-116, 72 h
[18] = Induction of cellularization in human primary myotube assessed as beta-actin level at 1 uM incubated for 72 hrs by Western blot analysis (reference value: 1.095); format: tissue-based
[19] = Induction of cellularization in human primary myotube assessed as alpha-tubulin level at 1 uM incubated for 72 hrs by Western blot analysis (reference value: 0.674); format: functional
[20] = test system: NIH3T3; assay: Downregulation of alpha-SMA in mouse NIH/3T3 cells at 1 uM incubated for 72 hrs by immunofluorescence microscopy; format: functional, cell-based
[21] = test system: NIH3T3; assay: Downregulation of alpha-SMA in mouse NIH-3T3 cells at 1 uM incubated for 72 hrs by Western blotting assay; format: functional, cell-based
[22] = test system: NIH3T3; assay: Adipogenic activity in mouse NIH/3T3 cells assessed as […] in epinephrine-stimulated fatty acid release at 1 uM preincubated for 72 hrs followed by incubation with adipogenic factors for 10 days by colorimetric assay; format: functional, cell-based
[23] = test system: NIH3T3; assay: Adipogenic activity in mouse NIH/3T3 cells assessed as increase in insulin-stimulated glucose uptake at 1 uM preincubated for 72 hrs followed by incubation with adipogenic factors for 10 days by […] probe based fluorescence assay; format: functional, cell-based; conditions: time 13.0 day
[24] = test system: NIH3T3; assay: Adipogenic activity in mouse NIH/3T3 cells assessed as increase in lipid accumulation at 1 uM preincubated for 72 hrs followed by incubation with adipogenic factors for 10 days by Oil red O staining based light microscopy; format: functional, cell-based; conditions: time 13.0 day
[25] = test system: C2C12; assay: Induction of cell cycle arrest in mouse C2C12 cells assessed as G2/M phase at 1 uM incubated for 72 hrs by propidium iodide based flow cytometry (reference value: 19.3 %); format: functional
[26] = test system: C2C12; assay: Induction of cell cycle arrest in mouse C2C12 cells assessed as S phase at 1 uM incubated for 72 hrs by propidium iodide based flow cytometry (reference value: 10.5 %); format: functional
[27] = test system: C2C12; assay: Induction of cell cycle arrest in mouse C2C12 cells assessed as G1 phase at 1 uM incubated for 72 hrs by propidium iodide based flow cytometry (reference value: 61.2 %); format: functional
[28] = test system: C2C12; assay: Osteogenic activity in mouse C2C12 cells assessed as increase in osteoponin-expression at 1 uM preincubated for 72 hrs followed by incubation with osteogenic factor for 10 days by RT-PCR analysis; format: functional, cell-based; conditions: time 13.0 day
[29] = test system: C2C12; assay: Osteogenic activity in mouse C2C12 cells assessed as increase in alkaline phosphatase at 1 uM preincubated for 72 hrs followed by incubation with osteogenic factor for 10 days by fluorescence based assay; format: functional, cell-based; conditions: time 13.0 day
[30] = test system: C2C12; assay: Osteogenic activity in mouse C2C12 cells assessed as increase in mineralization at 1 uM preincubated for 72 hrs followed by incubation with osteogenic factor for 10 days; format: functional, cell-based; conditions: time 13.0 day
[31] = test system: C2C12; assay: Osteogenic activity in mouse C2C12 cells assessed as increase in plasticity at 1 uM preincubated for 72 hrs followed by incubation with osteogenic factor for 10 days by Alizarin red staining based light microscopy; format: functional, cell-based; conditions: time 13.0 day
[32] = test system: C2C12 (Mus musculus); assay: Induction of cellularization in mouse C2C12 myotube at 1 uM incubated for 72 hrs by microscopic analysis
[33] = test system: C2C12 (Mus musculus); assay: Induction of cellularization in mouse C2C12 myotube assessed as reduction in cell proliferation at 1 uM incubated for 72 hrs by EdU staining based inverted fluorescence microscopy
[34] = Induction of cellularization in human primary myotube assessed as beta-actin level at 100 nM in presence of BIO incubated for 72 hrs by Western blot analysis (reference value: 1.095); format: tissue-based; conditions: 0.1 µM
[35] = Induction of cellularization in human primary myotube assessed as alpha-tubulin level at 100 nM in presence of BIO incubated for 72 hrs by Western blot analysis (reference value: 0.674); format: functional
[36] = Induction of cellularization in human primary myotube assessed as beta-actin level at 20 uM incubated for 72 hrs by Western blot analysis (reference value: 1.095); format: tissue-based
[37] = Induction of cellularization in human primary myotube assessed as alpha-tubulin level at 20 uM incubated for 72 hrs by Western blot analysis (reference value: 0.674); format: functional

fold change (FC) [2]: 1.388
SMILES: O=C1Nc2cc(Br)ccc2/C1=C1/Nc2ccccc2/C1=N\O [6BIO]
fold change (FC) [1]: 0.758

inhibition [3]: Dose-dependent effect
inhibition [4]: Dose-dependent effect
inhibition [5]: 99.8%
inhibition [6]: 47.7%
fold change (FC) [18]: 1.451
SMILES: Cl.NCCO/N=C1/C(=C2/C(=O)Nc3ccc([N+](=O)[O-])cc32)Nc2ccc(O)cc21
Activity [7]: Active
Activity [8]: Toxic
Activity [9]: Toxic
Activity [10]: Toxic
inhibition [11]: Active
fold change (FC) [12]: 1.962
fold change (FC) [13]: 0.674
fold change (FC) [14]: 1.129
fold change (FC) [15]: 1.115
IC50 [16]: 738 nM
IC50 [17]: 302 nM
fold change (FC) [19]: 1.064
Activity [20]: Active
Activity [21]: Active
Activity [22]: Active
Activity [23]: Active
Activity [24]: Active
Activity [25]: 35%
Activity [26]: 18%
Activity [27]: 33.6%
Activity [28]: Active
Activity [29]: Active
Activity [30]: Active
Activity [31]: Active
Activity [32]: Active
Activity [33]: Active

fold change (FC) [34]: 1.388
SMILES: COC(=O)[C@H]1[C@H]2C[C@@H]3c4[nH]c5cc(OC)ccc5c4CCN3C[C@H]2C[C@@H](OC(=O)c2cc(OC)c(OC)c(OC)c2)[C@@H]1OC [RESERPINE]
fold change (FC) [35]: 0.758

fold change (FC) [36]: 1.139
SMILES: COc1ccc(CNc2nc(NCc3ccc(OC)cc3)c3ncn(C(C)C)c3n2)cc1 [MYOSEVERIN]
fold change (FC) [37]: 0

— ChEMBL document CHEMBL4665660, “A novel indirubin derivative that increases somatic cell plasticity and inhibits tumorigenicity” (Bioorg Med Chem, 2019)
